Data on nine compounds can be found in publication PMC5297980 (Clinical Pharmacology in Drug Development, 2016).

By AUC(0-t) is commonly meant the area under the concentration-time curve up to a stated or last time point. By half-life is commonly meant the time in which the quantity being followed falls by half. Read a high half-life as slow loss. The AUC(0-inf) is the area under the concentration-time curve extrapolated to infinity. One may read the IC50 as the point on the concentration scale where inhibition reaches its midpoint. By Ki is commonly meant a dissociation constant, usually derived from enzyme kinetics or from competition with a known ligand. What is called AUC is concentration integrated over time. High values mean more exposure, low ones less exposure.

Where only a bound is given, the exact number is not on record here.

Data set [1] can be described thus: Phase 1 methotrexate-isavuconazole interaction study, plasma PK. The data set is classed as in vivo, human.
Data set [2] in a line: Phase 1 digoxin-isavuconazole interaction study, plasma PK. Format: in vivo, human.
In data set [3] the test system is OAT3. Particulars: HEK293 cells, [^3H]estrone sulfate substrate; ref data on file; cited from earlier work.
Data set [4] has as its system multidrug and toxin extrusion 1 (MATE1). As to conditions: HEK293 cells, [^14C]metformin substrate; ref data on file; cited from earlier work.
The subject of data set [5] is organic cation transporter 1 (OCT1). Particulars: HEK293 cells, [^14C]tetraethylammonium bromide; ref data on file; cited from earlier work.
Data set [6] can be described thus: Phase 1 atorvastatin-isavuconazole interaction study, plasma PK. Particulars: human, oral, 200 mg.
Data set [7] deals with organic anion‐transporting polypeptide 1B1 (OATP1B1). As to conditions: HEK293 cells, [^3H]estradiol 17β‐D‐glucuronide substrate; ref data on file; cited from earlier work.
Data set [8] has as its system OCT2. As to conditions: HEK293 cells, [^14C]metformin substrate; ref data on file; cited from earlier work.
Data set [9] can be described thus: Phase 1 metformin-isavuconazole interaction study, plasma PK.
The subject of data set [10] is organic anion transporter 1 (OAT1). As to conditions: HEK293 cells, [^3H]‐p‐aminohippuric acid substrate; ref data on file; cited from earlier work.
For data set [11] the following is noted: cited from earlier work.
For data set [12], the system named is P‐gp. Particulars: in vitro studies; cited from earlier work.
For data set [13] the following is noted: OATP1B1 substrate; cited from earlier work.
[14] abbreviates: methotrexate + isavuconazole (day 8), mean (SD).
[15] abbreviates: methotrexate + isavuconazole vs methotrexate alone.
Setting [16] is: methotrexate alone (day 1), mean (SD).

For the compound `CN(Cc1nc2c(N)nc(N)nc2[nH]c1=O)c1ccc(C(=O)N[C@@H](CCC(=O)O)C(=O)O)cc1` [7‐Hydroxymethotrexate, 7‐hydroxymethotrexate], in data set [1] (methotrexate 7.5 mg single oral dose alone (day 1), mean (SD)), the “AUC∞” value was 635.8 (309.3) h·ng/mL. In data set [1] (setting [14]), the AUClast was 683.2 (272.5) h·ng/mL, the Cmax is recorded as 36.7 (14.0) ng/mL and the t1/2 is recorded as 13.0 (2.3) h. The Tmax in data set [1] (methotrexate + isavuconazole (day 8), median (range)) is listed as 6.0 (3.5‐10.0) h. Further, in [1] (setting [15]), the “AUClast geometric least‐squares mean ratio (90% confidence interval)” value is given as 124 (114, 135) %; the “AUC∞ geometric least‐squares mean ratio (90% confidence interval)” value was 129 (119, 141) %; the “Cmax geometric least‐squares mean ratio (90% confidence interval)” value is 115 (104, 127) %. Further, in data set [1] (setting [16]), the AUClast is given as 554.6 (242.6) h·ng/mL, the Cmax was 32.1 (13.4) ng/mL and the t1/2 was 11.9 (2.9) h. Besides, the Tmax in data set [1] (methotrexate alone (day 1), median (range)) is on record as 6.0 (5.0‐10.0) h. Also, in data set [1] (vs methotrexate alone), the “Mean AUClast higher during concomitant administration with isavuconazole” value came to 24%, the “Mean AUC∞ higher during concomitant administration with isavuconazole” value was 29% and the “Mean Cmax higher during concomitant administration with isavuconazole” value was 15%.
Turning to `C[C@H]1O[C@@H](O[C@H]2[C@@H](O)C[C@H](O[C@H]3[C@@H](O)C[C@H](O[C@H]4CC[C@@]5(C)[C@H](CC[C@@H]6[C@@H]5C[C@@H](O)[C@]5(C)[C@@H](C7=CC(=O)OC7)CC[C@]65O)C4)O[C@@H]3C)O[C@@H]2C)C[C@H](O)[C@@H]1O` [Digoxin, digoxin], in data set [2] (digoxin study), the “Mean AUClast higher in the presence vs absence of isavuconazole” value came to 24%, the “Mean AUC∞ higher in the presence vs absence of isavuconazole” value was 25% and the “Mean Cmax higher in the presence vs absence of isavuconazole” value worked out at 33%. Also, in data set [2] (human, plasma, oral, 0.5 mg), the AUC(0-t) was determined as 32.9 ng·h/mL, the Cmax worked out at 1.6 ng/mL and the half-life is 2450 min. The compound also showed an AUC(0-inf) in data set [2] (human, plasma, po, 0.5 mg) of 34.4 ng·h/mL.
On to `C[C@@H](c1nc(-c2ccc(C#N)cc2)cs1)[C@](O)(Cn1cncn1)c1cc(F)ccc1F` [Isavuconazole, isavuconazole], for which the IC50 was greater than 10 µM in [3]; 6.31 µM in data set [4]; 3.74 µM in data set [5]; 11.2 µM in data set [7]; 1970 nM in data set [8]; greater than 10 µM in data set [10]. In addition, the Ki in data set [5] is 1740 nM; in data set [8] it was 690 nM. Moreover, the AUC in data set [6] stood at 77300 ng·h/mL; in data set [1] (human, plasma, oral, 200 mg), 99400 ng·h/mL; in data set [2] (human, plasma, oral, 200 mg), 102 µg·h/mL; in data set [9] (human, plasma, oral, 200 mg) it was 106 µg·h/mL. For the same compound, the Cmax in [6] came to 5300 ng/mL; in [1] (human, plasma, oral, 200 mg), 6200 ng/mL; in data set [2] (human, plasma, oral, 200 mg) it was 6100 ng/mL; in [9] (human, plasma, oral, 200 mg) it was 7100 ng/mL. Besides, the Tmax in data set [6] came out at 3 h; in data set [1] (human, plasma, oral, 200 mg) it was 3 h; in data set [2] (human, plasma, oral, 200 mg), 3 h; in data set [9] (human, plasma, oral, 200 mg), 3 h.
Regarding `CN(C)C(=N)N=C(N)N` [Metformin, metformin], in data set [9] (human, plasma, oral, 850 mg), the AUC(0-t) amounted to 9120 ng·h/mL. Besides, the Tmax in data set [9] (metformin + isavuconazole (day 8), median (range)) is on record as 2.0 (1.0‐4.0) h. In addition, in data set [9] (metformin alone (day 1), mean (SD)), the Cmax is reported as 1467 (449) ng/mL. Also, the Tmax in data set [9] (metformin alone (day 1), median (range)) is 2.5 (1.0‐6.0) h. In addition, the “AUC∞” value in data set [9] (metformin hydrochloride 850 mg single oral dose alone (day 1), mean (SD)) is 9303 (2543) h·ng/mL. Moreover, in data set [9] (metformin study), the “Mean AUClast higher in the presence vs absence of isavuconazole” value turned out to be 50%, the “Mean AUC∞ higher in the presence vs absence of isavuconazole” value is 52% and the “Mean Cmax higher in the presence vs absence of isavuconazole” value is given as 23%.
For `CN(Cc1cnc2nc(N)nc(N)c2n1)c1ccc(C(=O)N[C@@H](CCC(=O)O)C(=O)O)cc1` [Methotrexate, methotrexate], in data set [1] (human, plasma, oral, 7.5 mg), the Cmax turned out to be 156 ng/mL and the Tmax came out at 1 h. Besides, the AUC(0-inf) in data set [1] (human, plasma, po, 7.5 mg) was 620 ng·h/mL. In addition, in [1] (vs methotrexate alone), the “Mean AUClast lower when coadministered with isavuconazole” value came to 3%, the “Mean AUC∞ lower when coadministered with isavuconazole” value is listed as 3% and the “Mean Cmax lower when coadministered with isavuconazole” value came out at 11%.
In the case of `CC[C@@H]([C@H](C)O)n1ncn(-c2ccc(N3CCN(c4ccc(OC[C@@H]5CO[C@@](Cn6cncn6)(c6ccc(F)cc6F)C5)cc4)CC3)cc2)c1=O` [Posaconazole], the “effect on plasma concentrations of digoxin” value in data set [11] (ref NOXAFIL package insert) is “increase plasma concentrations of digoxin”.
Regarding `OC(Cn1cncn1)(Cn1cncn1)c1ccc(F)cc1F` [fluconazole], the “inhibition of P‐gp‐mediated active transport” value in data set [12] is reported as “not an inhibitor”.
`CCC(C)n1ncn(-c2ccc(N3CCN(c4ccc(OCC5COC(Cn6cncn6)(c6ccc(Cl)cc6Cl)O5)cc4)CC3)cc2)c1=O` (stereo not drawn) [itraconazole]: the “increase in plasma digoxin concentrations during coadministration” value in [11] is on record as “approximately 80%”.
As to `CCOc1cc(CC(=O)N[C@@H](CC(C)C)c2ccccc2N2CCCCC2)ccc1C(=O)O` [repaglinide], in data set [13], the “PK in the presence and absence of isavuconazole” value is listed as “unchanged”.
